What was measured:
SK-BR-3 = test: Growth inhibition of human SKBR3 cells after 72 hrs; assay type: functional, cell-based; details: SK-BR-3, 72 h
BXPC-3 [1] = test: Induction of apoptosis in human BxPC3 cells assessed as accumulation at sub-G0/G1 phase at 20 uM after 24 hrs by propidium iodide staining based flow cytometry (reference value: 2.3%); assay type: functional
BXPC-3 [2] = test: Induction of apoptosis in human BxPC3 cells assessed as accumulation at sub-G0/G1 phase at 20 uM after 48 hrs by propidium iodide staining based flow cytometry (reference value: 2.8%); assay type: functional
BXPC-3 [3] = test: Induction of apoptosis in human BxPC3 cells assessed as accumulation at sub-G0/G1 phase at 20 uM after 72 hrs by propidium iodide staining based flow cytometry (reference value: 3.4%); assay type: functional
BXPC-3 [4] = test: Induction of apoptosis in human BxPC3 cells assessed as accumulation at sub-G0/G1 phase harboring pSFFV-Bcl-XL at 20 uM after 24 hrs by propidium iodide staining based flow cytometry (reference value: 1.2%); assay type: functional
BXPC-3 [5] = test: Induction of apoptosis in human BxPC3 cells assessed as accumulation at sub-G0/G1 phase harboring pSFFV-Bcl-XL at 20 uM after 48 hrs by propidium iodide staining based flow cytometry (reference value: 1.3%); assay type: functional
BXPC-3 [6] = test: Induction of apoptosis in human BxPC3 cells assessed as accumulation at sub-G0/G1 phase harboring pSFFV-Bcl-XL at 20 uM after 72 hrs by propidium iodide staining based flow cytometry (reference value: 1.3%); assay type: functional
PANC-1 [7] = test: Induction of apoptosis in human PANC1 cells assessed as accumulation at sub-G0/G1 phase at 20 uM after 24 hrs by propidium iodide staining based flow cytometry (reference value: 0.6 to 0.7%); assay type: functional
PANC-1 [8] = test: Induction of apoptosis in human PANC1 cells assessed as accumulation at sub-G0/G1 phase at 20 uM after 48 hrs by propidium iodide staining based flow cytometry (reference value: 0.2 to 2.9%); assay type: functional
PANC-1 [9] = test: Induction of apoptosis in human PANC1 cells assessed as accumulation at sub-G0/G1 phase at 20 uM after 72 hrs by propidium iodide staining based flow cytometry (reference value: 1.6 to 3.2%); assay type: functional
PK9 [10] = test: Induction of apoptosis in human PK9 cells assessed as accumulation at sub-G0/G1 phase at 20 uM after 24 hrs by propidium iodide staining based flow cytometry (reference value: 2.2%); assay type: functional
PK9 [11] = test: Induction of apoptosis in human PK9 cells assessed as accumulation at sub-G0/G1 phase at 20 uM after 48 hrs by propidium iodide staining based flow cytometry (reference value: 3.8%); assay type: functional
PK9 [12] = test: Induction of apoptosis in human PK9 cells assessed as accumulation at sub-G0/G1 phase at 20 uM after 72 hrs by propidium iodide staining based flow cytometry (reference value: 4%); assay type: functional
[13] = Induction of apoptosis in HPNE cells assessed as accumulation at sub-G0/G1 phase at 20 uM after 24 hrs by propidium iodide staining based flow cytometry (reference value: 0.6%); assay type: cell-based; details: human
[14] = Induction of apoptosis in HPNE cells assessed as accumulation at sub-G0/G1 phase at 20 uM after 48 hrs by propidium iodide staining based flow cytometry (reference value: 0.7%); assay type: cell-based; details: human
[15] = Induction of apoptosis in HPNE cells assessed as accumulation at sub-G0/G1 phase at 20 uM after 72 hrs by propidium iodide staining based flow cytometry (reference value: 6.6%); assay type: cell-based; details: human
PANC-1 [16] = test: Induction of apoptosis in human PANC1 cells assessed as accumulation at sub-G0/G1 phase at 10 uM after 24 hrs by propidium iodide staining based flow cytometry (reference value: 0.6 to 0.7%); assay type: functional
PANC-1 [17] = test: Induction of apoptosis in human PANC1 cells assessed as accumulation at sub-G0/G1 phase at 10 uM after 48 hrs by propidium iodide staining based flow cytometry (reference value: 0.2 to 2.9%); assay type: functional
PANC-1 [18] = test: Induction of apoptosis in human PANC1 cells assessed as accumulation at sub-G0/G1 phase at 10 uM after 72 hrs by propidium iodide staining based flow cytometry (reference value: 1.6 to 3.2%); assay type: functional
BXPC-3 [19] = test: Induction of apoptosis in human BxPC3 cells assessed as accumulation at sub-G0/G1 phase at 10 uM after 24 hrs by propidium iodide staining based flow cytometry (reference value: 1.8%); assay type: functional
BXPC-3 [20] = test: Induction of apoptosis in human BxPC3 cells assessed as accumulation at sub-G0/G1 phase at 10 uM after 48 hrs by propidium iodide staining based flow cytometry (reference value: 2.8%); assay type: functional
BXPC-3 [21] = test: Induction of apoptosis in human BxPC3 cells assessed as accumulation at sub-G0/G1 phase at 10 uM after 72 hrs by propidium iodide staining based flow cytometry (reference value: 3.4%); assay type: functional
BXPC-3 [22] = test: Induction of apoptosis in human BxPC3 cells harboring pSFFV-Bcl-XL assessed as accumulation at sub-G0/G1 phase at 10 uM after 24 hrs by propidium iodide staining based flow cytometry (reference value: 1.5%); assay type: functional
BXPC-3 [23] = test: Induction of apoptosis in human BxPC3 cells harboring pSFFV-Bcl-XL assessed as accumulation at sub-G0/G1 phase at 10 uM after 48 hrs by propidium iodide staining based flow cytometry (reference value: 1.9%); assay type: functional
BXPC-3 [24] = test: Induction of apoptosis in human BxPC3 cells harboring pSFFV-Bcl-XL assessed as accumulation at sub-G0/G1 phase at 10 uM after 72 hrs by propidium iodide staining based flow cytometry (reference value: 2%); assay type: functional
PK9 [25] = test: Induction of apoptosis in human PK9 cells assessed as accumulation at sub-G0/G1 phase at 10 uM after 24 hrs by propidium iodide staining based flow cytometry (reference value: 2.2%); assay type: functional
PK9 [26] = test: Induction of apoptosis in human PK9 cells assessed as accumulation at sub-G0/G1 phase at 10 uM after 48 hrs by propidium iodide staining based flow cytometry (reference value: 3.8%); assay type: functional
PK9 [27] = test: Induction of apoptosis in human PK9 cells assessed as accumulation at sub-G0/G1 phase at 10 uM after 72 hrs by propidium iodide staining based flow cytometry (reference value: 4%); assay type: functional
[28] = Induction of apoptosis in HPNE cells assessed as accumulation at sub-G0/G1 phase at 10 uM after 24 hrs by propidium iodide staining based flow cytometry (reference value: 0.6%); assay type: cell-based; details: human
[29] = Induction of apoptosis in HPNE cells assessed as accumulation at sub-G0/G1 phase at 10 uM after 48 hrs by propidium iodide staining based flow cytometry (reference value: 0.7%); assay type: cell-based; details: human
[30] = Induction of apoptosis in HPNE cells assessed as accumulation at sub-G0/G1 phase at 10 uM after 72 hrs by propidium iodide staining based flow cytometry (reference value: 6.6%); assay type: cell-based; details: human
HeLa = test: Growth inhibition of human HeLa cells after 72 hrs; assay type: functional, cell-based
Fibroblast [31] = test: Induction of apoptosis in human primary fibroblasts at 20 uM after 24 hrs by propidium iodide staining based flow cytometry (reference value: 4.8%); assay type: cell-based
Fibroblast [32] = test: Induction of apoptosis in human primary fibroblasts at 20 uM after 48 hrs by propidium iodide staining based flow cytometry (reference value: 6.1%); assay type: cell-based
Fibroblast [33] = test: Induction of apoptosis in human primary fibroblasts at 20 uM after 72 hrs by propidium iodide staining based flow cytometry (reference value: 6.7%); assay type: cell-based
Fibroblast [34] = test: Induction of apoptosis in human primary fibroblasts assessed as accumulation at sub-G0/G1 phase at 10 uM after 24 hrs by propidium iodide staining based flow cytometry (reference value: 4.8%); assay type: cell-based
Fibroblast [35] = test: Induction of apoptosis in human primary fibroblasts assessed as accumulation at sub-G0/G1 phase at 10 uM after 48 hrs by propidium iodide staining based flow cytometry (reference value: 6.1%); assay type: cell-based
Fibroblast [36] = test: Induction of apoptosis in human primary fibroblasts assessed as accumulation at sub-G0/G1 phase at 10 uM after 72 hrs by propidium iodide staining based flow cytometry (reference value: 6.7%); assay type: cell-based

**Q.** What does the source list for `O[C@H]1[C@@H](O)CN[C@@H]1COCCCCCCCC/C=C/c1ccc(Oc2ccccc2)cc1`?
**A.** IC50 (SK-BR-3): 15 µM; Activity (BXPC-3 [1]): 8.7%; Activity (BXPC-3 [2]): 16.2%; Activity (BXPC-3 [3]): 20.3%; Activity (BXPC-3 [4]): 4.4%; Activity (BXPC-3 [5]): 4.5%; Activity (BXPC-3 [6]): 4.3%; Activity (PANC-1 [7]): 9.9%; Activity (PANC-1 [8]): 33.1%; Activity (PANC-1 [9]): 29.3%; Activity (PK9 [10]): 4.6%; Activity (PK9 [11]): 5.2%; Activity (PK9 [12]): 6.2%; Activity [13]: 79.1%; Activity [14]: 81.4%; Activity [15]: 85.8%; Activity (PANC-1 [16]): 3.1%; Activity (PANC-1 [17]): 3.8%; Activity (PANC-1 [18]): 4.4%; Activity (BXPC-3 [19]): 3.9%; Activity (BXPC-3 [20]): 6.6%; Activity (BXPC-3 [21]): 8.3%; Activity (BXPC-3 [22]): 3.6%; Activity (BXPC-3 [23]): 4.8%; Activity (BXPC-3 [24]): 4.8%; Activity (PK9 [25]): 3.4%; Activity (PK9 [26]): 4.4%; Activity (PK9 [27]): 3.1%; Activity [28]: 6.5%; Activity [29]: 6.8%; Activity [30]: 7.9%

**Q.** With `CCCCCCCC/C=C\CCCCCCCCNC[C@H]1NC[C@H](O)[C@@H]1O` as the compound, how does the IC50 (SK-BR-3) read?
**A.** 10 µM

**Q.** Which results are given for `Cl.O[C@H]1CN[C@H](COCCCCCC/C=C/c2ccc(-c3ccccc3)cc2)C1`?
**A.** IC50 (HeLa): 4.2 µM; Activity (PANC-1 [7]): 16.1%; Activity (PANC-1 [8]): 36.9%; Activity (PANC-1 [9]): 54.2%; Activity (PK9 [10]): 26%; Activity (PK9 [11]): 66.6%; Activity (PK9 [12]): 71.5%; Activity (Fibroblast [31]): 58.9%; Activity (Fibroblast [32]): 75.4%; Activity (Fibroblast [33]): 73.7%; Activity [13]: 69.6%; Activity [14]: 92.1%; Activity [15]: 92.6%; Activity (PANC-1 [16]): 9.6%; Activity (PANC-1 [17]): 29.3%; Activity (PANC-1 [18]): 47.9%; Activity (PK9 [25]): 6.9%; Activity (PK9 [26]): 10%; Activity (PK9 [27]): 13.5%; Activity (Fibroblast [34]): 14.6%; Activity (Fibroblast [35]): 19.8%; Activity (Fibroblast [36]): 54.5%; Activity [28]: 44.4%; Activity [29]: 78.5%; Activity [30]: 93.6%

Reference: ChEMBL document CHEMBL4196088, “Induction of cell killing and autophagy by amphiphilic pyrrolidine derivatives on human pancreatic cancer cells” (Eur J Med Chem, 2018)
